Reference: US7309484B2, “Compositions and methods for screening antibacterial compounds” (priority 2003, dated 2007)
Bridge positions count the residues as written; N and C are the ends. Square brackets hold non-standard residues; d marks the D form. Peptide text beside a SMILES is read from it. * marks the point of attachment. Ileψ(thiazoline)Cys = CC[C@H](C)[C@H](N)C1=N[C@H](C(=O)*)CS1; dOrn = NCCC[C@@H](N)C(=O)O

Legend:
[1] = system: liaI expression (pMUTIN-derived lacZ fusion, strain BFS2470); test: microbe, parasite or virus in culture; conditions: Bacillus subtilis, 0.5 h, read-out: fold induction of liaI expression
Protocol: Disc-diffusion assays were used to determine the spectrum of stimuli that induce the expression of liaIH. The B. subtilis strains BFS2469 and BFS2470 (Table 2), harboring pMUTIN-insertions in liaH and liaI respectively, were plated on a medium containing the indicator dye X-gal and overlaid with filter disks impregnated with various antibiotics that interfere with cell wall biosynthesis. Specifically, cultures of B. subtilis strain BFS2469 (liaH::pMUTIN) and BFS2470 (liaI::pMUTIN) were grown in LB medium to midlog phase, 2 mL for the un-induced control sample were harvested, and the remaining culture was induced with the three antibiotics for 30 minutes, before the cells of the induced sample were harvested. All samples were taken in duplicate from two independent cultures and the standard deviation is indicated by error bars.
Measurement of induction by β-galactosidase assays: Cells were inoculated from fresh overnight LB-plates and grown in LB-medium at 37° C. with aeration until they reached an O.D.600=0.45. 2 mL of cultures were harvested (un-induced control) and the cell pellets were shock frozen and kept at −70° C. The cultures were induced by addition of antibiotics to a final concentration of: bacitracin (100 μg/mL), tunicamycin (50 μg/mL) or vancomycin (2 μg/mL) and incubated for additional 30 min at 37° C. 2 mL of the cultures were harvested as described above (induced sample). The pellets were re-suspended in 1 mL of working buffer and assayed for β-galactosidase activity as described with normalization to cell density (Miller, 1972, the entire teaching of which is incorporated herein by reference).
For quantitative measurements of β-galactosidase activity, cells were inoculated from fresh overnight LB-plates and grown in LB medium at 37 YC with aeration until they reached an OD600 of 0.45. 2 ml of the culture was harvested (un-induced control) and the cell pellets were frozen and kept at −80 YC. The cultures were induced by addition of the compound to be tested to the final concentration as described in the individual figure legends and incubated for an additional 30 min at 37 YC. 2 ml of the cultures were harvested as described above. The pellets were re-suspended in 1 ml of working buffer (60 mM Na2HPO4, 40 mMNaH2PO4, 10 mM KCl, 1 mM MgSO4, 4 mM DTT) and assayed for β-galactosidase activity as described with normalization to cell density Kobayashi, K., et al., 2001, J Bacteriol 183:7365-7370). […] A sample was taken after 30 min for β-galactosidase assay and the turbidity of the remaining culture was measured for at least 5 hours to monitor the concentration-dependent effects of the antibiotics on cell growth.

[2] = system: liaI expression (liaI::pMUTIN lacZ fusion, strain BFS2470; also liaH::pMUTIN, BFS2469); test: Disk-diffusion assay, blue ring on X-Gal plates; format: cell-based, Bacillus subtilis; for Disk-diffusion assay: key: −: no induction; +: induction of yvql expression
From the text: The pMUTIN-insertion results in a disruption of the targeted gene and generates a transcriptional fusion to lacZ thereby allowing detection of both antibiotic sensitivity (as defined by the zone of inhibition around the disk) and inducibility (by the formation of a blue ring at the edge of the zone of inhibition) (Cao et al., 2002, Mol Microbiol. 45: 1267-1276, the entire teaching of which is incorporated herein). The disruption of liaI and liaH had no effect on the sensitivity of the mutants to any of the antibiotics tested. […] Equivalent levels of induction were also observed with the PliaI-74-cat-lacZ fragment (in HB0950), albeit with lower fold-changes (See, Table 2). While the mode of action is different for these antibiotics, all four interfere with the lipid II cycle, essential for the biosynthesis of cell envelope polymers (Lazar et al., 2002, Curr. Opin. Chem. Biol. 6: 786-93).
PliaI induction assays: Screening for liaI induction was done by disk diffusion assay essentially as described (Cai, S. J., and M. Inouye, 2002, J Biol Chem 277:24155-61). B. subtilis strains were inoculated from a fresh overnight LB agar plate and grown to mid-log phase (OD600 ˜0.45) at 37 YC with shaking. 20 μl of the culture was mixed with 3 ml of 0.7% soft LB agar (containing 40 μg of X-Gal per plate) and poured onto the bottom agar. After cooling and drying of the plates (20 min at 37 YC), filter paper disks (6 mm diameter) carrying 5 μl of stock solution (antibiotics normally 100 mg/ml; lysozyme 10 mg/ml; tunicamycin, surfactants, uncouplers 5 mg/ml each; inhibitors of protein biosynthesis as given in the media and growth conditions section) were placed on top of the agar. The plates were incubated at 37 YC overnight. After 12-24 h incubation, the plates were scored for the appearance of a blue ring at or near the edge of the zone of growth inhibition produced by the diffusion of the antibiotics from the filter disk.

SMILES: CC[C@H](C)[C@H](N)C1=N[C@H](C(=O)N[C@@H](CC(C)C)C(=O)N[C@H](CCC(=O)O)C(=O)N[C@H](C(=O)N[C@H]2CCCCNC(=O)[C@H](CC(N)=O)NC(=O)[C@@H](CC(=O)O)NC(=O)[C@H](Cc3cnc[nH]3)NC(=O)[C@@H](Cc3ccccc3)NC(=O)[C@H]([C@@H](C)CC)NC(=O)[C@@H](CCCN)NC2=O)[C@@H](C)CC)CS1 [Bacitracin] ({Ileψ(thiazoline)Cys}-L[dE]IK[dOrn]I[dF]H[dD]N; lactam 4-C)
- fold induction at 100 µg/mL [1]: > 500
- disk-diffusion assay ([2]; qualitative screen of β-Galactosidase activity, blue ring at edge of zone of inhibition, LB plates with X-Gal, strain BFS2470): +
- induction of liaI / liaH expression, in words ([2]; strains BFS2469 and BFS2470): induced
